Experimental data published in article PMC9927415, “Tyrosine Kinase Inhibitors Display Potent Activity against Cryptosporidium parvum” (Microbiology Spectrum, 2022).

Experiments:
Assay in all cases: KINOMEscan competitive binding, whole panel
[1] = target: T1, panel of 203 kinases (Homo sapiens, UniProt Q99683); conditions: 10 µM, n=1; kinase MAP3K5; read-out: Percent inhibition MAP3K5
T1 construct: purchased DiscoverX (KINOMEscan)
T1 sequence (Q99683 1-1374): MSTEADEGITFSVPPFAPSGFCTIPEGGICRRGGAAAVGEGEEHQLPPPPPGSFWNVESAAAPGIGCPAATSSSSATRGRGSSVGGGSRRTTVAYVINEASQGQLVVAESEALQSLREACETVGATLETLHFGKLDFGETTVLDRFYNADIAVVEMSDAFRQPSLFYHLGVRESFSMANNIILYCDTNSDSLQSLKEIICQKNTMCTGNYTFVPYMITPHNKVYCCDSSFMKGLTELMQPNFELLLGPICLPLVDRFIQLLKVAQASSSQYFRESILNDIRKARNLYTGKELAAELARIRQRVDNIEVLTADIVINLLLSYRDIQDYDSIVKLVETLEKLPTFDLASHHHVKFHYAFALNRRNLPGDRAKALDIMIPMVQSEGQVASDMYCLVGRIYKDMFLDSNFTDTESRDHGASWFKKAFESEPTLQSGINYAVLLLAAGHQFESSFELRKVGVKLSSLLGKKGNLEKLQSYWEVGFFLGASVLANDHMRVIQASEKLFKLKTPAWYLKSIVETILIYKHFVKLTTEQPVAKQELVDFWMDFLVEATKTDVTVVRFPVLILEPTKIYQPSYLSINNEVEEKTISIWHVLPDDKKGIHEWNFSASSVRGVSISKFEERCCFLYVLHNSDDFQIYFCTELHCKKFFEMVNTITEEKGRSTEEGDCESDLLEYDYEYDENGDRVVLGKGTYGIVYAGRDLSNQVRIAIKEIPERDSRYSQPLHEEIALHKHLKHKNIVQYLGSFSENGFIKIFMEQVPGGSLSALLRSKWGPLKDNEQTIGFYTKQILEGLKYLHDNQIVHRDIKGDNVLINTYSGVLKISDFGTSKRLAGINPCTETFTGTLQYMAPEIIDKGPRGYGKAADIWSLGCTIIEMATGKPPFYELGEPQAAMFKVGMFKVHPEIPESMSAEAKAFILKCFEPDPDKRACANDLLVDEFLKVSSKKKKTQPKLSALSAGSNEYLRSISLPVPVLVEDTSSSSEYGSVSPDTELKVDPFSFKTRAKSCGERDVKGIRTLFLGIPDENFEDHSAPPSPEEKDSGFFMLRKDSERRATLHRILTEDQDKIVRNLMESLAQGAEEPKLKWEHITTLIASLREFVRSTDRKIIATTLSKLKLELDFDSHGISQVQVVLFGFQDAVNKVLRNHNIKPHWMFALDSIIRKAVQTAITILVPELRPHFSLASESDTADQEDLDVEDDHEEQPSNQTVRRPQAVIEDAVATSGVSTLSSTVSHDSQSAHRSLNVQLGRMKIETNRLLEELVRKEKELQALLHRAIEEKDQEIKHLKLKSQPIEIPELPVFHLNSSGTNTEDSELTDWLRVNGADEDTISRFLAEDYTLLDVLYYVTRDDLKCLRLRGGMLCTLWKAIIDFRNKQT
Procedure, shortened: (§1)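 Percentage inhibition reflects loss of kinase binding to solid-phase ATP-site probe ligands in the presence of compound. Kinases carry a T7 bacteriophage fusion.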

[2] = target: T2, panel of 203 kinases (Homo sapiens, UniProt P07332); conditions: 10 µM, n=1; kinase FES; read-out: Percent inhibition FES
T2 construct: purchased DiscoverX (KINOMEscan)
T2 sequence (P07332 whole entry): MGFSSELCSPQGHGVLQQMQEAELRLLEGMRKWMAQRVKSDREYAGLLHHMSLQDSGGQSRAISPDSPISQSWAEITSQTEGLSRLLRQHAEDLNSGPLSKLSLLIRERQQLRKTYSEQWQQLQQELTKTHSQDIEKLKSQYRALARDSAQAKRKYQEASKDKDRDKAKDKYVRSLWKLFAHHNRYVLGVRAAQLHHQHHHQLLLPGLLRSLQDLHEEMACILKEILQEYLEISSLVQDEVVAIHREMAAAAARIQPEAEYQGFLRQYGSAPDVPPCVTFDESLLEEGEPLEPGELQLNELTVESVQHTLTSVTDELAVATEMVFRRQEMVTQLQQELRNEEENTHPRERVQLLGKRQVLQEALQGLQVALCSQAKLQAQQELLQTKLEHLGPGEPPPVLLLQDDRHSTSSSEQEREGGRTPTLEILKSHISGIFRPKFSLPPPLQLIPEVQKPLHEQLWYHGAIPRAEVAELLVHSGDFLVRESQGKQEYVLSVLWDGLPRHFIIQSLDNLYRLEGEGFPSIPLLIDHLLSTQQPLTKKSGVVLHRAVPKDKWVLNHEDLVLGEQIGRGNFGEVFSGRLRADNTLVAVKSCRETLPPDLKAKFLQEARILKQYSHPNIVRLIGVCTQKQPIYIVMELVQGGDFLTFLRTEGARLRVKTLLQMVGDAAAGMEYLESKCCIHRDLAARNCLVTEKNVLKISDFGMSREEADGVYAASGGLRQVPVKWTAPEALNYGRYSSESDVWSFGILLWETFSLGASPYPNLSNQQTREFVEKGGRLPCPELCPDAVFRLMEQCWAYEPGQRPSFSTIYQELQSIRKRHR
Procedure, shortened: as §1

[3] = target: T3, panel of 203 kinases (Homo sapiens, UniProt Q8IVH8); conditions: 10 µM, n=1; kinase MAP4K3; read-out: Percent inhibition MAP4K3
T3 construct: purchased DiscoverX (KINOMEscan)
T3 sequence (Q8IVH8 1-894): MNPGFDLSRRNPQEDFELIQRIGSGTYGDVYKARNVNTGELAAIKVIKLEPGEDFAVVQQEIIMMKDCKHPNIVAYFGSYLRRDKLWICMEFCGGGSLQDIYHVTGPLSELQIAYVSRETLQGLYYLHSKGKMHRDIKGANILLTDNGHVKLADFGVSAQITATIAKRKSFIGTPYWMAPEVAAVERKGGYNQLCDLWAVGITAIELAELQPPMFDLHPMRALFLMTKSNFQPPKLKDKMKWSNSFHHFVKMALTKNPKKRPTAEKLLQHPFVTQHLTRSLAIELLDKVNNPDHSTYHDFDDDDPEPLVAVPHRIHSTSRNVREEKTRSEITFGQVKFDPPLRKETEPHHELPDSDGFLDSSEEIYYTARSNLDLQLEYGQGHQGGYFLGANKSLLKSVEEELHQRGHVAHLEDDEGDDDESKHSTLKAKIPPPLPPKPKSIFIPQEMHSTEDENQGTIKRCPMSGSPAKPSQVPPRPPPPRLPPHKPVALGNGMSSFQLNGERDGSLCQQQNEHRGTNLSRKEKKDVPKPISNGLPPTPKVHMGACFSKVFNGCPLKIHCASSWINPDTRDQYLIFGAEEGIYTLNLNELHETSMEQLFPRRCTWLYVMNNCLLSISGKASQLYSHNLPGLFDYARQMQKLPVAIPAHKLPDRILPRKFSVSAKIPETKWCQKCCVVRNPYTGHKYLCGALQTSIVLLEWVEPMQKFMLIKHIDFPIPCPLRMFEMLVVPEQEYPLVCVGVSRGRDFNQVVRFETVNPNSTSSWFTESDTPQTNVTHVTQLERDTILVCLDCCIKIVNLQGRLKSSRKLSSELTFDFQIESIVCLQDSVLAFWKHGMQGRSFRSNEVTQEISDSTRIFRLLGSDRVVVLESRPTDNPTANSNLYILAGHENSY
Procedure, shortened: as §1

[4] = target: T4, panel of 203 kinases (Homo sapiens, UniProt P08631); conditions: 10 µM, n=1; kinase HCK; read-out: Percent inhibition HCK
T4 construct: purchased DiscoverX (KINOMEscan)
T4 sequence (P08631 whole entry): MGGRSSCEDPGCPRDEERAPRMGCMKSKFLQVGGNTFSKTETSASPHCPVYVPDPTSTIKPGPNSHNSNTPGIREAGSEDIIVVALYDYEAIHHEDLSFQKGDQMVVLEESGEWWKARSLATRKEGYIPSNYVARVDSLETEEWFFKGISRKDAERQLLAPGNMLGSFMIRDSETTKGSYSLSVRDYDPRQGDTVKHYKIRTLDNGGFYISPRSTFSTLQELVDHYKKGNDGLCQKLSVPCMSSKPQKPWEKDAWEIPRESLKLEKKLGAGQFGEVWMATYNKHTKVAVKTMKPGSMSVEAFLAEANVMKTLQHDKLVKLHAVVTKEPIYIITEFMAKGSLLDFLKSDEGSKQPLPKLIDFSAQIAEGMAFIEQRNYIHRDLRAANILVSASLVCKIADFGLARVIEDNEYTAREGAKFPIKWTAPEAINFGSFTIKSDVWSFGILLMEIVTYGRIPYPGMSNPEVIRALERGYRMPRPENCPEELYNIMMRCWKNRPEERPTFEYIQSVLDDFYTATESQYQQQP
Procedure, shortened: as §1

[5] = target: T5, panel of 203 kinases (Homo sapiens, UniProt Q15759); conditions: 10 µM, n=1; kinase p38-beta; read-out: Percent inhibition p38-beta
T5 construct: purchased DiscoverX (KINOMEscan)
T5 sequence (Q15759 whole entry): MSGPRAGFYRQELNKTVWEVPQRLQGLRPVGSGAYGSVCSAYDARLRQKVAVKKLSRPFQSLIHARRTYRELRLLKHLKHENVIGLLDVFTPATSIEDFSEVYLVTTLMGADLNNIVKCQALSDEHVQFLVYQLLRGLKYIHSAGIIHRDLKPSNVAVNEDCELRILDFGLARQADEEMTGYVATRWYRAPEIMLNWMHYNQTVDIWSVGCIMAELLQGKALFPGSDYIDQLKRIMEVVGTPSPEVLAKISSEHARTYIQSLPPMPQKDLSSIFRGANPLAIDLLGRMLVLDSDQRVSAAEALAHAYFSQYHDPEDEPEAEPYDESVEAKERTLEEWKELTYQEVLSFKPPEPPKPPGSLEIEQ
Procedure, shortened: as §1

SMILES | inhibition at 10 µM [1] | inhibition at 10 µM [2] | inhibition at 10 µM [3] | inhibition at 10 µM [4] | inhibition at 10 µM [5]
C[C@@H](Oc1cc(-c2cnc3ccccn23)sc1C(N)=O)c1ccccc1Cl [Compound 8] | 0% | 0% | 0% | 0% | 0%
Cc1ccc(O)cc1N(C)c1ccnc(Nc2cccc(S(N)(=O)=O)c2)n1 [Compound 4] | 0% | 100% | 98.5% | 99.8% | 100%
COc1cc(Nc2nccc(-c3sc(N)nc3-c3cccc(NC(=O)c4c(F)cccc4F)c3)n2)cc(OC)c1OC [Compound 7] | 0% | 99.8% | 99.7% | 99.7% | 100%
CN1CCN(c2ccc(Nc3nccc(-c4cnn5ncccc45)n3)cc2C#N)CC1 [Compound 1] | 0% | 66.7% | 97% | 0% | 0%
Fc1cccc(COc2ccc(Nc3ncnc4c3CN(CCN3CCOCC3)CC4)cc2Cl)c1 [Compound 6] | 0% | 0% | 0% | 0% | 0%
Cc1ccc(O)cc1Nc1ccnc(Nc2cccc(C(N)=O)c2)n1 [Compound 3] | 0% | 96.7% | 80.2% | 99.8% | 94.8%
Clc1ccc(Nc2ncc(-c3ccccc3)s2)cc1 [Compound 10] | 0% | 0% | 0% | 0% | 0%
COc1ccc(Nc2nccc(-c3cnn4ncccc34)n2)cc1 [Compound 2] | 0% | 84.9% | 79.3% | 0% | 0%
c1ccc(COc2cccc(-c3ccnc4[nH]ccc34)c2)cc1 [Compound 9] | 0% | 0% | 0% | 0% | 0%
Nc1ncc2c(-c3ccncc3)c[nH]c2n1 [Compound 11] | 0% | 0% | 82% | 66.9% | 0%
